Here are results for one compound from PMC9598925, “Synthetic Amphipathic β-Sheet Temporin-Derived Peptide with Dual Antibacterial and Anti-Inflammatory Activities” (Antibiotics, 2022).

In brackets after ≈: the same amount, converted by molar mass. Non-standard residues stand in square brackets, D forms with d. Residues, ends and D or L forms follow the SMILES beside them. Nle = CCCC[C@H](N)C(=O)O

Data set [1] is described as follows: Peptide aggregation in LUVs, Thioflavin T. The format is physicochemical. Particulars: LUVs DOPG/CL (58/42), 0.1 mM lipid. The procedure:
Regarding peptide aggregation in LUVs, was monitored using the Thioflavin T as fluorescent probe. LUVs were prepared using the extrusion method. Firstly, the lipid films (final concentration of 0.1 mM), made of DOPG, CL (58/42 ratio in moles) and DOPG/DOPE/CL (63/23/12 ratio in moles), were prepared by dissolving an appropriate amount of lipids in chloroform. The solvent was removed under nitrogen stream, water was added, and the film lipids were freeze-dried. Then, the lipid films were hydrated with 100 mM NaCl, 10 mM Tris-HCl, 25 μM Tht buffer, pH 7.4, and vortexed for 1 h. Then, the lipid suspension was freeze-thawed 6 times and extruded 10 times through polycarbonate membranes with […] diameter pores to obtain LUVs. The aggregation of [Nle^1, DLeu^9, DLys^10]TL was monitored titrating LUVs with different peptide concentrations of 5, 10, 15, 20, 30, 50 μM. Spectra were recorded before and after the addition of peptide using a Varian Cary Eclipse fluorescence spectrometer, exciting the sample at 450 nm (slit width, 10 nm) and recording fluorescence emission at 482 nm (slit width, 5 nm). Aggregation was quantified according to this equation: %A= […] × 100, where Ff indicates the value of fluorescence after peptide addition, F0 the fluorescence in the absence of peptide and Fmax is the fluorescence maximum obtained immediately after peptide addition.

The test system of data set [2] is sheep red blood cells. The experiment in a line: Hemolytic assay. The format is cell-based. As for the experimental part:
Hemolysis was evaluated on sheep red blood cells (OXOID, SR0051D, Milan, Italy). Aliquots of cells in 0.9% (w/v) NaCl were incubated with the peptide [Nle^1, DLeu^9, DLys^10]TL at different concentrations (ranging from 3.12 to 100 μM) for 40 min at 37 °C with gentle shaking. Controls were erythrocytes treated with vehicle while total lysis controls were obtained by suspending cell in distilled water. Then, the samples were centrifuged for 5 min at 900× g, and the presence of hemoglobin in the supernatant was measured at an absorbance of 415 nm using a microplate reader (Infinite M200; Tecan, Salzburg, Austria) and compared to the complete lysis of erythrocytes (100%). The data reported are the mean ± the standard error of the mean (S.E.M.) of three independent experiments.

The nature of data set [3]: Circular dichroism in vesicles. The format is physicochemical. Conditions: vesicles of DOPG/CL and DOPG/DOPE/CL, peptide 3 μM, phosphate buffer 5 mM pH 7.4, 25 °C; negative band at ~220 nm. As for the experimental part: All CD spectra were recorded from 260 to 190 nm (a bandwidth of 3 nm, a time constant of 16 s, and a scan rate of 10 nm/min) on a Jasco J-175 spectropolarimeter using a 1 cm quartz cell at 25 °C. Small unilamellar vesicles (SUVs) made of DOPG/CL (58/42 ratio in moles) and DOPG/DOPE/CL (63/23/12 ratio in moles) were used in the conformational study. SUVs were prepared as reported previously. Firstly, lipids dissolved in chloroform and an equal volume of peptide solution dissolved in 2,2,2-trifluoroethanol (TFE) containing the peptide [Nle^1, DLeu^9, DLys^10]TL at a concentration of 3 μM were mixed, vortexed, and lyophilized overnight. Then, the dry samples were hydrated with phosphate buffer 5 mM, pH 7.4, for 1 h and sonicated for 30 min to obtain SUVs. Each spectrum was corrected for the blank and converted into mean molar ellipticity.

Data set [4] is described as follows: in vitro. Conditions: male, human, 90% human serum (from human male AB plasma).
Protocol: The peptide was mixed with 90% of human serum at a final concentration of 200 μM and incubated at 37 °C [27]. Aliquots of the mixture were taken at time intervals of 15, 45, 75, 90 and 120 min. The serum protein was removed by the precipitation with acetonitrile (MeCN) and centrifuged at 13,000 rpm for 15 min. Then, the supernatant was taken and analyzed by ultra-high performance liquid chromatography (UHPLC) using a Phenomenex Kinetex column (4.6 mm × 150 mm, 5 μm, C18) and a linear gradient from 10 to 90% of MeCN (0.1% TFA) in water (0.1% TFA) over 20 min. The percentage of the intact peptide was calculated by integrating the peak area of the UHPLC chromatogram.
The test system of data set [5] is IL-6 production in LPS-stimulated J774A.1 cells. As to the kind of experiment: Anti-inflammatory activity, IL-6 ELISA in LPS-stimulated macrophages. The format is cell-based, murine. Conditions: LPS 10 µg∙mL^−1, peptide 3 μM, 24 h, ELISA of supernatant, three independent experiments. The procedure:
Mouse macrophage cell line J774A.1 was cultured as previously described. Cells were seeded in Petri culture dishes (100 mm × 20 mm) at a density of 5 × 10^5 cells per dish and allowed to grow for 24 h. The medium was then replaced, and cells were treated with LPS (10 μg∙mL^−1) in presence or absence of [Nle^1, DLeu^9, DLys^10]TL at the concentration of 3 µM (non-cytotoxic concentration from MTT assay). Following incubation of 24 h, cells were collected with a cell scraper, and after centrifugation at 14,000× g for 10 min at 4 °C, the supernatant was collected and assayed for IL-6 enzyme-linked immunosorbent assay (ELISA) analysis.

Data set [6] relates to S. epidermidis ATCC 12228. The format is cell-based. As for the experimental part: (§1) All Gram-negative and Gram-positive strains were obtained from the American Type Culture Collection (Rockville, MD, USA). MICs were determined as described previously. 50 μL of bacterial culture properly diluted in Mueller–Hinton (MH) broth were added to each well of a 96-well plate containing 50 μL of MH with serially two-fold diluted peptide from 100 μM, to reach a final cell density of 1 × 10^6 CFU/mL. Each MIC value indicates the lowest concentration of compound that causes a total inhibition of bacterial growth after 16–18 h of incubation at 37 °C.

In data set [7] the test system is S. aureus ATCC 25923. The format is cell-based. The procedure:
as §1

The test system of data set [8] is B. megaterium Bm11. The format is cell-based. As for the experimental part:
as §1

In data set [9] the test system is A. baumannii ATCC 19606. The format is cell-based. The procedure: as §1
The subject of data set [10] is K. pneumoniae ATCC BAA-1705. The format is cell-based. As for the experimental part: as §1
The test system of data set [11] is P. aeruginosa ATCC 27853. The format is cell-based. As for the experimental part:
as §1

In data set [12] the test system is E. coli ATCC 25922. The format is cell-based. The procedure:
as §1

Take `CCCC[C@H](N)C(=O)N[C@@H](Cc1ccccc1)C(=O)N[C@H](C(=O)N1CCC[C@H]1C(=O)N[C@@H](Cc1c[nH]c2ccccc12)C(=O)N[C@@H](Cc1ccccc1)C(=O)N[C@@H](CO)C(=O)N[C@@H](CCCCN)C(=O)N[C@@H](Cc1ccccc1)C(=O)N[C@H](CC(C)C)C(=O)N[C@H](CCCCN)C(=O)N[C@@H](CCCNC(=N)N)C(=O)N[C@H](C(=O)N[C@@H](CC(C)C)C(N)=O)[C@@H](C)CC)C(C)C` [[Nle^1, DLeu^9, DLys^10]TL] (H-[Nle]FVPWFSKF[dL][dK]RIL-NH2): the “aggregation (ThT)” value in data set [1] (5 μM peptide, pH 7.4, 25 μM ThT fluorescence) is on record as ~ 22%; in data set [1] (30 μM peptide, pH 7.4, ThT fluorescence), “completely aggregated”. Besides, the hemolysis in data set [2] (50 µM) and in data set [2] (100 µM) was ~ 40% each time. The “molecular conformation (CD)” value in data set [3] is given as “β-type conformation”. For the same compound, in [4], the fraction remaining (usually what is left of the initial amount, in per cent) at 0.75 h, 200 μM is approximately 75%. This compound also came in with a share remaining at 2 h, 200 μM in data set [4] of approximately 50%. Besides, in [5], the IL-6 production entry is recorded as “significant modulation of IL-6 production”. The minimum inhibitory concentration (MIC) (as a rule, the least concentration at which growth counts as inhibited) in data set [6] amounted to 3.12 µM (≈ 5.6 µg/mL); in data set [7], 3.12 µM (≈ 5.6 µg/mL); in data set [8], 0.78 µM (≈ 1.4 µg/mL); in [9], 3.12 µM (≈ 5.6 µg/mL); in [10] it was 12.5 µM (≈ 22.4 µg/mL); in data set [11], 12.5 µM (≈ 22.4 µg/mL). Further, in data set [12], the MIC amounted to 6.25 µM (≈ 11.2 µg/mL).
